Assays:
Format in all cases: in vivo
[1] = system: Chilo suppressalis (Striped Rice Stemborer); assay: Example B4: Chilo suppressalis (Striped Rice Stemborer), artificial diet; conditions: 144 h, application rate of 200 ppm, L2 larvae, 6 days after infestation, read-out: control in at least one of the three categories (mortality, anti-feedant or growth inhibition)
Experimental: Example B4: Chilo suppressalis (Striped Rice Stemborer)
24-well microtiter plates with artificial diet were treated with aqueous test solutions prepared from 10′000 ppm DMSO stock solutions by pipetting. After drying, the plates were infested with L2 larvae (6-8 per well). The samples were assessed for mortality, anti-feeding effect, and growth inhibition in comparison to untreated samples 6 days after infestation. Control of Chilo suppressalis by a test sample is given when at least one of the categories mortality, anti-feedant effect, and growth inhibition is higher than the untreated sample.

[2] = system: Spodoptera littoralis (Egyptian Cotton Leaf Worm); assay: Example B9: Spodoptera littoralis (Egyptian Cotton Leaf Worm), sprayed cotton leaf discs; conditions: foliar, 72 h, application rate of 200 ppm, L1 larvae, 3 days after infestation, read-out: control in at least one of the three categories (mortality, anti-feedant or growth inhibition)
[3] = system: Plutella xylostella (Diamond Back Moth); assay: Example B5: Plutella xylostella (Diamond Back Moth), artificial diet, 24-well; conditions: 192 h, application rate of 200 ppm, eggs, 8 days after infestation, read-out: control in at least one of the two categories (mortality or growth inhibition)
Experimental: Example B5: Plutella xylostella (Diamond Back Moth)
24-well microtiter plates with artificial diet were treated with aqueous test solutions prepared from 10′000 ppm DMSO stock solutions by pipetting. After drying, Plutella eggs were pipetted through a plastic stencil onto a gel blotting paper and the plate was closed with it. The samples were assessed for mortality and growth inhibition in comparison to untreated samples 8 days after infestation.

[4] = system: Diabrotica balteata (Corn Root Worm); assay: Example B1: Diabrotica balteata (Corn Root Worm), sprayed maize sprouts; conditions: 96 h, application rate of 200 ppm, L2 larvae, 4 days after infestation, read-out: control in at least one of the two categories (mortality or growth inhibition)
Experimental: Example B1: Diabrotica balteata (Corn Root Worm)
Maize sprouts placed onto an agar layer in 24-well microtiter plates were treated with aqueous test solutions prepared from 10′000 ppm DMSO stock solutions by spraying. After drying, the plates were infested with L2 larvae (6 to 10 per well). The samples were assessed for mortality and growth inhibition in comparison to untreated samples 4 days after infestation.

CC(NC(=O)c1cc(C(F)(F)F)cc(S(=O)(=O)C(F)(F)F)c1)c1nccnc1-c1ccc(C#N)cn1 (stereo not shown) [P15, N-[1-[3-(5-cyano-2-pyridyl)pyra-zin-2-yl]ethyl]-3-(trifluoromethyl)-5-(trifluoromethylsulfonyl)benza-mide]
≥ 80%: percent control (mortality, anti-feedant effect or growth inhibition) at 200 ppm [1] | percent control (mortality, anti-feedant effect or growth inhibition) at 200 ppm [2] | percent control (mortality or growth inhibition) at 200 ppm [3]

CC(NC(=O)c1cc(C(F)(F)F)cc(S(=O)(=O)C(F)(F)F)c1)c1nccnc1-c1ccc(OC(F)F)cn1 (stereo not shown) [P11, N-[1-[3-[5-(difluoromethoxy)-2-pyridyl]pyrazin-2-yl]ethyl]-3-(trifluoromethyl)-5-(trifluoromethylsulfonyl)benzamide]
≥ 80%: percent control (mortality, anti-feedant effect or growth inhibition) at 200 ppm [1] | percent control (mortality, anti-feedant effect or growth inhibition) at 200 ppm [2] | percent control (mortality or growth inhibition) at 200 ppm [3]

CC(NC(=O)c1cc(C(F)(F)F)cc(C(F)(F)C2CC2)c1)c1nccnc1-c1ccc(OCC(F)F)cn1 (stereo not shown) [P30, 3-[cyclopropyl(difluoro)methyl]-N-[1-[3-[5-(2,2-difluoroethoxy)-2-pyridyl]pyrazin-2-yl]ethyl]-5-(trifluoromethyl)benzamide]
≥ 80%: percent control (mortality or growth inhibition) at 200 ppm [3]

COC1(c2cc(C(=O)NC(C)c3nccnc3-c3ccc(C#N)cn3)cc(C(F)(F)F)c2)CC1 (stereo not shown) [P46, N-[1-[3-(5-cyano-2-pyridyl)pyra-zin-2-yl]ethyl]-3-(1-methoxycyclopropyl)-5-(trifluoromethyl)benzamide]
≥ 80%: percent control (mortality, anti-feedant effect or growth inhibition) at 200 ppm [1] | percent control (mortality or growth inhibition) at 200 ppm [4] | percent control (mortality, anti-feedant effect or growth inhibition) at 200 ppm [2] | percent control (mortality or growth inhibition) at 200 ppm [3]

C[C@@H](c1nccnc1-c1ccc(C#N)cn1)N(CC1CC1)C(=O)c1cc(C(F)(F)F)cc(C(F)(F)C2CC2)c1 [P43, N-[(1S)-1-[3-(5-cyano-2-pyridyl)pyrazin-2-yl]ethyl]-3-[cyclopropyl(difluoro)methyl]-N-(cyclopropylmethyl)-5-(trifluoromethyl)benzamide]
≥ 80%: percent control (mortality, anti-feedant effect or growth inhibition) at 200 ppm [1] | percent control (mortality or growth inhibition) at 200 ppm [4] | percent control (mortality, anti-feedant effect or growth inhibition) at 200 ppm [2] | percent control (mortality or growth inhibition) at 200 ppm [3]

CC(NC(=O)c1cc(C(F)(F)F)nc(C2(C#N)CC2)c1)c1nccnc1-c1ccc(C#N)cn1 (stereo not shown) [P16, 2-(1-cyanocyclopropyl)-N-[1-[3-(5-cyano-2-pyridyl)pyrazin-2-yl]eth-yl]-6-(trifluoromethyl)pyridine-4-carboxamide]
≥ 80%: percent control (mortality, anti-feedant effect or growth inhibition) at 200 ppm [1] | percent control (mortality or growth inhibition) at 200 ppm [4] | percent control (mortality, anti-feedant effect or growth inhibition) at 200 ppm [2] | percent control (mortality or growth inhibition) at 200 ppm [3]

CC(NC(=O)c1cc(C(F)(F)F)cc(C(F)(F)C2CC2)c1)c1nccnc1-c1ccc(C#N)cn1 (stereo not shown) [P18, N-[1-[3-(5-cyano-2-pyridyl)pyra-zin-2-yl]ethyl]-3-[cyclopropyl(difluoro)methyl]-5-(trifluoromethyl)benzamide]
≥ 80%: percent control (mortality, anti-feedant effect or growth inhibition) at 200 ppm [1] | percent control (mortality, anti-feedant effect or growth inhibition) at 200 ppm [2] | percent control (mortality or growth inhibition) at 200 ppm [3]

CC(NC(=O)c1cc(C2CC2)cc(C(F)(F)F)c1)c1nccnc1-c1ccc(C#N)cn1 (stereo not shown) [P14, N-[1-[3-(5-cyano-2-pyridyl)pyra-zin-2-yl]ethyl]-3-cyclopropyl-5-(trifluoromethyl)benzamide]
≥ 80%: percent control (mortality, anti-feedant effect or growth inhibition) at 200 ppm [1] | percent control (mortality, anti-feedant effect or growth inhibition) at 200 ppm [2] | percent control (mortality or growth inhibition) at 200 ppm [3]

CC(NC(=O)c1cc(C(F)(F)F)cc(C(C)(C)C#N)c1)c1nccnc1-c1ncc(OC(F)F)cn1 (stereo not shown) [P8, 3-(1-cyano-1-methyl-ethyl)-N-[1-[3-[5-(difluoromethoxy)pyrimidin-2-yl]pyrazin-2-yl]ethyl]-5-(trifluoromethyl)benzamide]
≥ 80%: percent control (mortality, anti-feedant effect or growth inhibition) at 200 ppm [1] | percent control (mortality or growth inhibition) at 200 ppm [4] | percent control (mortality, anti-feedant effect or growth inhibition) at 200 ppm [2] | percent control (mortality or growth inhibition) at 200 ppm [3]

CC(NC(=O)c1cc(C2CC2)nc(C(F)(F)F)c1)c1nccnc1-c1ncc(OCC(F)F)cn1 (stereo not shown) [P35, 2-cyclopropyl-N-[1-[3-[5-(2,2-difluoroethoxy)pyrimidin-2-yl]pyrazin-2-yl]ethyl]-6-(trifluoromethyl)pyridine-4-carboxamide]
≥ 80%: percent control (mortality, anti-feedant effect or growth inhibition) at 200 ppm [1] | percent control (mortality, anti-feedant effect or growth inhibition) at 200 ppm [2] | percent control (mortality or growth inhibition) at 200 ppm [3]

CC(NC(=O)c1cc(C(F)(F)F)cc(C(F)(F)C2CC2)c1)c1nccnc1-c1ccc(OC(F)F)cn1 (stereo not shown) [P5, 3-[cyclopropyl(difluoro)methyl]-N-[1-[3-[5-(difluoromethoxy)-2-pyridyl]pyrazin-2-yl]ethyl]-5-(trifluoromethyl)benzamide]
≥ 80%: percent control (mortality, anti-feedant effect or growth inhibition) at 200 ppm [1] | percent control (mortality, anti-feedant effect or growth inhibition) at 200 ppm [2] | percent control (mortality or growth inhibition) at 200 ppm [3]

CC(NC(=O)c1cc(C2CC2)nc(C(F)(F)F)c1)c1nccnc1-c1ccc(C#N)cn1 (stereo not shown) [P17, N-[1-[3-(5-cyano-2-pyridyl)pyra-zin-2-yl]ethyl]-2-cyclopropyl-6-(trifluoromethyl)pyridine-4-carboxamide]
≥ 80%: percent control (mortality, anti-feedant effect or growth inhibition) at 200 ppm [1] | percent control (mortality, anti-feedant effect or growth inhibition) at 200 ppm [2] | percent control (mortality or growth inhibition) at 200 ppm [3]

CC(NC(=O)c1cc(C(F)(F)F)cc(C(C)(C)C#N)c1)c1nccnc1-c1ccc(OCC(F)(F)F)cn1 (stereo not shown) [P10, 3-(1-cyano-1-methyl-ethyl)-N-[1-[3-[5-(2,2,2-trifluoroethoxy)-2-pyridyl]pyrazin-2-yl]ethyl]-5-(trifluoromethyl)benzamide]
≥ 80%: percent control (mortality, anti-feedant effect or growth inhibition) at 200 ppm [1] | percent control (mortality, anti-feedant effect or growth inhibition) at 200 ppm [2] | percent control (mortality or growth inhibition) at 200 ppm [3]

CC(NC(=O)c1cc(OC(F)(F)F)cc(C2(C#N)CC2)c1)c1nccnc1-c1ccc(C#N)cn1 (stereo not shown) [P45, 3-(1-cyanocyclopropyl)-N-[1-[3-(5-cyano-2-pyridyl)pyrazin-2-yl]ethyl]-5-(trifluorometh-oxy)benzamide]
≥ 80%: percent control (mortality, anti-feedant effect or growth inhibition) at 200 ppm [1] | percent control (mortality or growth inhibition) at 200 ppm [3]

CC(NC(=O)c1cc(C(F)(F)F)cc(S(=O)(=O)C(F)(F)F)c1)c1nccnc1-c1ncc(OCC(F)(F)F)cn1 (stereo not shown) [P12, N-[1-[3-[5-(2,2,2-trifluoroethoxy)pyrimidin-2-yl]pyrazin-2-yl]ethyl]-3-(trifluoromethyl)-5-(trifluoromethylsulfonyl)benzamide]
≥ 80%: percent control (mortality, anti-feedant effect or growth inhibition) at 200 ppm [1] | percent control (mortality, anti-feedant effect or growth inhibition) at 200 ppm [2] | percent control (mortality or growth inhibition) at 200 ppm [3]
